PMC13052075, “Synthesis of 1,2,3,4‐Tetrahydroisoquinoline‐3‐Carboxylic Acid‐Embedded Decapeptides: In Silico Studies and In Vitro Evaluation Against Breast Cancer” (ChemistryOpen, 2025)
Non-standard residues stand in square brackets, D forms with d. Residues, ends and D or L forms follow the SMILES beside them. Tic = O=C(O)[C@@H]1Cc2ccccc2CN1

Tested on: MCF‐7 human breast cancer cell line
Test: cells
Details: for IC50: 24 h
Procedure: Using GraphPad Prism software, the IC50 values were determined (Figure 8). After conducting the MTT assay, the absorbance data was entered into the software to generate dose–response curves. The nonlinear regression analysis function, specifically log(inhibitor) verus normalized response was employed to calculate the IC50 values for each compound. This method allowed for accurate determination of the concentration required to inhibit 50% of cell viability.
The MTT assay (3‐[4,5‐dimethylthiazol‐2‐yl]‐2,5‐diphenyltetrazolium bromide) was employed to evaluate the anticancer potential of the synthesized compounds against the MCF‐7 human breast cancer cell line. MCF‐7 cells were seeded into a 96‐well plate at a density of 1 × 10^4 cells per well and allowed to adhere for 24 h. Subsequently, the cells were treated with the test compounds at concentrations of 0.1, 1, 2, 5, and 10 µM, prepared in plain Dulbecco's Modified Eagle Medium (DMEM) media. After 24 h of incubation, MTT solution (100 µg per well; Sigma‐Aldrich) was added, and the plates were incubated for an additional 3–4 h to allow the formation of formazan crystals. The resulting formazan was dissolved in DMSO, and absorbance was measured at 570 nm using a microplate reader.

For `CC/C(=C(\c1ccccc1)c1ccc(OCCN(C)C)cc1)c1ccccc1` [Tamoxifen, tamoxifen], the inhibition at 0.1 µM (Homo sapiens, MCF7, 24 h, read-out: % Inhibition 0.1 µM) was 14.1 ± 5.41%, the inhibition at 1 µM (Homo sapiens, MCF7, 24 h, read-out: % Inhibition 1 µM) was 29.6 ± 10.4% and the inhibition at 2 µM (Homo sapiens, MCF7, 24 h, read-out: % Inhibition 2 µM) was 38.2 ± 2.76%. It also gave an inhibition at 5 µM (Homo sapiens, MCF7, 24 h, read-out: % Inhibition 5 µM) of 57.2 ± 5.99% and an inhibition at 10 µM (Homo sapiens, MCF7, 24 h, read-out: % Inhibition 10 µM) of 92.21 ± 0.73%.
For `CC(C)C[C@H](NC(=O)[C@H](Cc1c[nH]c2ccccc12)NC(=O)[C@H](CO)NC(=O)[C@H](CCC(=O)O)NC(=O)[C@@H]1Cc2ccccc2CN1C(=O)[C@H](Cc1c[nH]cn1)NC(=O)[C@H](CCCCN)NC(=O)[C@H](CCCNC(=N)N)NC(=O)[C@H](CS)NC(=O)[C@@H](N)CCCCN)C(=O)O` [DEC‐3] (H-KCRKH[Tic]ESWL-OH), the IC50 was 4.49 µM.
`CC(C)C[C@H](NC(=O)[C@H](Cc1c[nH]c2ccccc12)NC(=O)[C@H](CO)NC(=O)[C@H](CCC(=O)O)NC(=O)[C@@H]1Cc2ccccc2CN1C(=O)[C@H](CCCCN)NC(=O)[C@H](Cc1c[nH]cn1)NC(=O)[C@H](CCCNC(=N)N)NC(=O)CNC(=O)[C@@H](N)Cc1c[nH]cn1)C(=O)O` [DEC‐1] (H-HGRHK[Tic]ESWL-OH) gave an IC50 of 3.38 µM.
In the case of `CC(C)C[C@H](NC(=O)[C@H](Cc1c[nH]c2ccccc12)NC(=O)[C@H](CO)NC(=O)[C@H](CCC(=O)O)NC(=O)[C@@H]1Cc2ccccc2CN1C(=O)[C@H](Cc1c[nH]cn1)NC(=O)[C@H](CCCNC(=N)N)NC(=O)[C@H](CCCCN)NC(=O)[C@H](CS)NC(=O)[C@@H](N)CCCNC(=N)N)C(=O)O` [DEC‐2] (H-RCKRH[Tic]ESWL-OH), the IC50 is reported as 6.1 µM.
